For orientation: CC50 means the concentration giving 50% cytotoxicity. A higher CC50 goes with lower toxicity to the cells. As usually defined, the EC50 is the midpoint of the concentration-response curve. As a reminder, the inhibition is the change of the read-out against control, counted positive when it falls.

Data set [1] in a line: Cell toxicity (Celltiter-Glo) in HEK-Blue hTLR8 cells. As to conditions: human. (In general: In ATP-based viability assays light output follows the ATP content of the culture.)
Another data set has as its target T1, hTLR7 (Homo sapiens, UniProt Q9NYK1).
T1 construct: expressed in transfected cells; host or cells: HEK-Blue hTLR7 cells
T1 sequence (Q9NYK1 27-1049): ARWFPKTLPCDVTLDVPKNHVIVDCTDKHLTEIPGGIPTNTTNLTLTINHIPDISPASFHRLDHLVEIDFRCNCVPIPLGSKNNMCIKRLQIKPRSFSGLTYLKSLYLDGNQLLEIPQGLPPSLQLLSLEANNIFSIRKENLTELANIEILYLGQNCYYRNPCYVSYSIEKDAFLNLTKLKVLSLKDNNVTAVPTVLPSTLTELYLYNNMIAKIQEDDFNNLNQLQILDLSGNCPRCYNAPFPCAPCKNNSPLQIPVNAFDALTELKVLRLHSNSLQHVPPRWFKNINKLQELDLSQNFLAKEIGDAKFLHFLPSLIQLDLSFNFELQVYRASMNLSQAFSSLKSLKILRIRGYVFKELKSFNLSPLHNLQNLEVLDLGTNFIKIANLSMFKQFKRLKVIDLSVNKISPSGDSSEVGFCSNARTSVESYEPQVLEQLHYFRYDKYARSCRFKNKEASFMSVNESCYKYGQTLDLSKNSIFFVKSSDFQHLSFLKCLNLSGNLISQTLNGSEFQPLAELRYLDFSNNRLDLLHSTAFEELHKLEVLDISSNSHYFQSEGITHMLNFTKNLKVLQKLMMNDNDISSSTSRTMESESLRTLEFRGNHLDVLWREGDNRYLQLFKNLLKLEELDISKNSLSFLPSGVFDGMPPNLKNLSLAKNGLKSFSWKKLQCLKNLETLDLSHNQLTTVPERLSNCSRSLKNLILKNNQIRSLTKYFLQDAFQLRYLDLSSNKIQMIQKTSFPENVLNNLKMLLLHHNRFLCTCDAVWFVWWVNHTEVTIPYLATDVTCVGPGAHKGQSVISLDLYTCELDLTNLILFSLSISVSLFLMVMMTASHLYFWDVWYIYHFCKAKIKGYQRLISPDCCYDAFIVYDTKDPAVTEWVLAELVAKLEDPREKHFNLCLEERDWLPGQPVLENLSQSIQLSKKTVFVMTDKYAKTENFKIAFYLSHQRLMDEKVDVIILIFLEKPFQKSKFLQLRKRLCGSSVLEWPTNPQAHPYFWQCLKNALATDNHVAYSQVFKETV
The data set is described as follows: Agonistic activity on human TLR7 in HEK-Blue hTLR7 cells (QUANTI-Blue). The data set is classed as cell-based. To be noted: 24 h incubation, OD650, read-out: hTLR 7 EC50.

In data set [2] the target is T2, CYP1A2 (Homo sapiens, UniProt P05177).
T2 construct: from tissue; host or cells: human liver microsomes
T2 sequence (P05177 1-516): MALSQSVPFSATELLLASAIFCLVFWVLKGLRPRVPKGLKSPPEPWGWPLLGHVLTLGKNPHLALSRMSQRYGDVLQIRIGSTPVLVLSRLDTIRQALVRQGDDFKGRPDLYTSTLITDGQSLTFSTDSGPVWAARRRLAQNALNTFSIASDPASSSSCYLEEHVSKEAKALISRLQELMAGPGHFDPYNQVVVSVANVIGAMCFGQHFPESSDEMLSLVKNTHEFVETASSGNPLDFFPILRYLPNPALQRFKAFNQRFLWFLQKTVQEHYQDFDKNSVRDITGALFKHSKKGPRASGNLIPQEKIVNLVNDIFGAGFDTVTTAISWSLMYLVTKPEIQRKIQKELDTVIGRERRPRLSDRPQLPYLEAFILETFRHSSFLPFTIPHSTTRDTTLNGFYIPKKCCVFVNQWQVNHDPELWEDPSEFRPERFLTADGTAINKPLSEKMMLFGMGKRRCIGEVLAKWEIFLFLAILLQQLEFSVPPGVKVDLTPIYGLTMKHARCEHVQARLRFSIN
The data set is described as follows: Inhibition of human liver microsomal CYP1A2. The format is in vitro ADME. To be noted: human liver microsomes, 10 μM test substance; read-out: Relative inhibition rate (%) CYP1A2. The procedure:
Experimental purpose: The inhibitory effects of the test compounds on the major metabolizing enzymes CYP1A2, CYP2C19, CYP2D6 and CYP3A4 in microsomes were evaluated using the human liver microsomal system. Experimental method: The test substance was incubated with a suspension of human liver microsomes containing cytochrome P450 enzymes CYP1A2, CYP2C19, CYP2D6 and CYP3A4 at a concentration of 10 μM in the final incubation system. The known substrates were metabolized by the corresponding single enzymes to generate specific metabolites, and the metabolites were determined by UPLC-MS/MS method. The relative inhibition rate (%) was calculated by the percentage reduction of metabolite production by the test compound and solvent DMSO in the same time period. N is the concentration value of the probe substrate metabolite and it is assumed that the […] with or without inhibitor at 0 min is 0. N+inh is the metabolite concentration in the group with inhibitor, and Nveh is the metabolite concentration in the group without inhibitor. The results of the inhibition test of the compounds of the present invention on human liver microsomal CYP enzymes are shown in Table C.
(In general: Liver microsomes are a subcellular fraction often used to study metabolism.)

The test system of data set [3] is CYP1A2. The data set is described as follows: Induction of CYP1A2 in frozen human hepatocytes. The format is in vitro ADME. As to conditions: 72 h induction, concentration and readout not stated. The protocol: Experimental purpose: Using frozen human hepatocytes as the test system, the induction effects of the test substances on CYP1A2, CYP2B6 and CYP3A4 were evaluated from two aspects of enzyme activity and mRNA level.
Experimental method: 24 hours after cell plating, induction was started by adding medium containing the test compound (test concentrations were 10, 1, and 0.1 μM), and fresh drug-containing medium was replaced every 24 hours. After 72 hours of induction, the medium was replaced with medium containing CYP1A2, CYP2B6, and CYP3A4 specific substrates for 30 minutes of incubation. 100 μL was taken for treatment, and the labeled metabolites of the substrates were detected to evaluate the enzyme activity level. Finally, the cells were lysed and reverse transcribed, and the expression levels of CYP1A2, CYP2B6 and CYP3A4 genes in the cells were evaluated by real-time quantitative PCR.
The induction fold of the test compound compared with the blank control and the induction percentage of the test compound compared with the positive control were used as the basis for evaluating the induction potential of the test compound. Among them, the positive control for CYP1A2 is Omeprazole; the positive control for CYP2B6 is Phenobarbital; the positive control for CYP3A4 is Rifampicin.

Experimental for hTLR7: Purpose: HEK-Blue™ hTLR7 and HEK-Blue™ hTLR8 cells were used to detect the agonist and cytotoxic activities of compounds against hTLR7 and hTLR8.
The experimental steps were as shown below: • 1) Preparation of compound: The compound was prepared into a 20 mM stock solution with DMSO, and then the stock solution was diluted 3-fold in a gradient and added to a 96-well plate, for a total of 10 concentrations, with duplicate wells for each concentration. For negative control wells, 0.5 μL DMSO was added to each well. The final DMSO concentration was 0.5%. • 2) HEK-Blue™ hTLR7 or HEK-Blue™ hTLR8 cells were suspended in culture medium and then seeded into 96-well plates containing compounds at a cell count of 50,000 per well. The compounds and cells were incubated for 24 h at 37° C., 5% Co2. • 3) QUANTI-Blue was used for the detection solution: to a mixture of 1 mL of QB reagent and 1 mL of QB buffer was added 98 mL of sterile water, the mixture was mixed and dissolved, and then placed at room temperature for 10 min. • 4) Activity test of the compound: 20 μL of the culture supernatant in step 2) was added to each well of a 96-well plate containing 180 μL of QUANTI-Blue detection solution. After incubation at 37° C. for 1 h, the absorbance at 650 nm (OD650) was detected using a multifunctional microplate reader Flextation III. • 5) Detection of cell activity: The chemiluminescent signal (RLU) was detected using the multifunctional microplate reader Flextation III according to the instructions of Celltiter-Glo. • 6) Data analysis
Activity of compounds: OD650 values were analyzed using GraphPad Prism software, and the compound dose-effect curves were fitted to calculate the EC50 values of the compounds.

Consider `CCCC[C@](C)(CO)Nc1nc(N)nc2cc(-c3cc(=O)n(C)cc3CN3CCCCC3)ccc12` [Example 8], for which, in data set [1], the CC50 at 24 h was 98.3 µM. Also, on hTLR7, the EC50 was above 100 µM. Besides, the inhibition at 10 µM on CYP1A2 [2] is -10.5%. Besides, the “CYP1A2 Induction fold relative to blank control” value in the data set with CYP1A2 [3] came out at 0.7.
For `CCCCN(C)Cc1c[nH]c(=O)cc1-c1cnc2c(N[C@@](C)(CO)CCCC)nc(N)nc2c1` [Example 28, (R)-4-(2-Amino-4-((1-hydroxy-2-methylhexan-2-yl)amino)pyrido[3,2-d]pyrimidin-7-yl)-5-((butyl(methyl)amino)methyl)pyridin-2(1H)-one], in that order: above 100 µM, 29.5 µM, 5.1% and 0.8.
`CCCC[C@](C)(CO)Nc1nc(N)nc2cc(-c3cc(=O)[nH]cc3CN(C)CCOC)cnc12` [Example 21] had a CC50 at 24 h in data set [1] above 100 µM. In addition, the EC50 at hTLR7 amounted to 90.3 µM. Also, the inhibition at 10 µM on CYP1A2 [2] was -4.1%. Moreover, the “CYP1A2 Induction fold relative to blank control” value in the data set on CYP1A2 [3] is reported as 0.6.
In the case of `C=CCCN(C)Cc1c[nH]c(=O)cc1-c1ccc2c(N[C@@](C)(CO)CCCC)nc(N)nc2c1` [Example 35], the CC50 at 24 h in data set [1] was above 100 µM. Also, the EC50 on hTLR7 is 68.6 µM. Also, at CYP1A2 [2], the inhibition at 10 µM was 2.7%. Also, the “CYP1A2 Induction fold relative to blank control” value with CYP1A2 [3] is recorded as 0.4.

Values taken from patent US20250163051A1, “PYRIMIDO AROMATIC RING COMPOUND AND USE THEREOF IN DRUG” (SUNSHINE LAKE PHARMA CO., LTD., priority 2022, published 2025).
